# Tests used:
# [1] = system: MIA PaCa-2 human pancreatic carcinoma; assay: MIA PaCa-2 CCK-8 proliferation assay; assay type: cell-based; conditions: MIA PaCa-2 cells
# Outline: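 Compounds were tested as a 3-fold series from 20 μM down to 1.02 nM in CCK-8 absorbance assays. The lines used were NCI-H23 and NCI-H358, each with 1 KRAS(G12C) copy, and MIA PaCa-2 with 2 copies. Inhibition was derived relative to DMSO controls, with a no-cell blank subtracted.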
# [2] = target: T1, HSP90a protein (Homo sapiens, UniProt P07900); assay: HSP90α-binding fluorescent polarization (FP) assay, BODIPY-labeled RNK04010 probe; conditions: FP competition with RNK04010 (BODIPY-labeled), 5 nM, 300 min at 25° C.
# T1 construct: purchased BPS Bioscience 50298
# Outline: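 Test compounds (2.5-fold serial dilution, 20 μM to 5.2 nM) competed with a fluorescent tracer for N-terminal HSP90a, with fluorescence polarization as the read-out. FITC-geldanamycin tracer was used at 5 nM final with 120 min incubation at 25° C; BODIPY-labeled RNK04010 was used at 5 nM final with 300 min incubation.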
# [3] = target: T2, KRAS(G12C) (Homo sapiens, UniProt P01116, G12C); assay: KRAS(G12C) Western blot protein degradation assay in LU65A cells; assay type: cell-based; design: LU65A human lung cancer cell line, which expresses KRAS(G12C); host or cells: LU65A; conditions: 6 hr
# T2 sequence (P01116 1-188 isoform P01116-2 G12C): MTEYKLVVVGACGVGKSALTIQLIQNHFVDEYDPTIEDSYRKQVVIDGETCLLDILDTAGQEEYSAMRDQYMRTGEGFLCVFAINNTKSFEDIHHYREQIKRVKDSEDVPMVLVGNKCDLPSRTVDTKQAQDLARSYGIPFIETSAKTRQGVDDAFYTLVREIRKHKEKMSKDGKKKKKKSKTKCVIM
# Outline: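 Cells treated with compound at various concentrations at 37 °C for 48 hr (MIA PaCa-2) or 6 hr (LU65A), then lysed in RIPA. Protein-normalized lysates immunoblotted for KRAS with β-actin, fluorescence quantified; DC50 is the concentration giving 50% of maximal KRAS degradation.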
# [4] = target: T2, KRAS(G12C); assay: KRAS(G12C)/SOS1 homogeneous time-resolved fluorescence (HTRF) assay; design: purchased Cisbio 63ADK000CB16PEG; conditions: absence of GTP, 4° C. for 3 hr, read-out: KRAS (G12C) binding
# Outline: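 HTRF kit measuring compound-induced block of KRAS(G12C)-SOS1 interaction without GTP. Compounds tested as 3-fold serial dilutions down to 1.02 nM, incubated with reaction components 3 h at 4 °C in sealed plates before fluorescence read.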
"EC50 ([1]; Homo sapiens, MIA PaCa-2, 72 h) [nM]",IC50 [2] [nM],DC50 [3] [nM],IC50 [4] [nM],EC50 ([1]; 72 hr) [nM],SMILES
100 to 1000,< 100,100 to 1000,< 100,,"C=CC(=O)N1CCN(c2nc(OCCN3CCN(C(=O)C4CCN(Cc5ccc(-n6c(O)nnc6-c6cc(C(C)C)c(O)cc6O)cc5)CC4)CC3)nc3c2CCN(c2cccc4cccc(Cl)c24)C3)C[C@@H]1CC#N [Compound 192, (S)-2-(1-acryloyl-4-(7-(8-chloronaphthalen-1-yl)-2-(2-(4-(1-(4-(3-(2,4-dihydroxy-5-isopropylphenyl)-5-hydroxy-4H-1,2,4-triazol-4-yl)benzyl)piperidine-4-carbonyl)piperazin-1-yl)ethoxy)-5,6,7,8-tetrahydropyrido[3,4-d]pyrimidin-4-yl)piperazin-2-yl)acetonitrile, trifluoroacetic acid]"
100 to 1000,< 100,100 to 1000,< 100,,"C=CC(=O)N1CCN(c2nc(OC[C@@H]3CC[C@H](CN4CCN(Cc5ccc(-n6c(O)nnc6-c6cc(C(C)C)c(O)cc6O)cc5)CC4)N3C)nc3c2CCN(c2cccc4cccc(Cl)c24)C3)C[C@@H]1CC#N [Compound 326, 2-[(2S)-4-[7-(8-chloronaphthalen-1-yl)-2-{[(2S,5R)-5-{[4-({4-[3-(2,4-dihydroxy-5-isopropylphenyl)-5-hydroxy-1,2,4-triazol-4-yl]-phenyl}methyl)piperazin-1-yl]methyl}-1-methylpyrrolidin-2-yl]methoxy}-5H,6H,8H-pyrido[3,4-d]pyrimidin-4-yl]-1-(prop-2-enoyl)piperazin-2-yl]acetonitrile]"
100 to 1000,< 100,100 to 1000,< 100,,"C=CC(=O)N1CCN(c2nc(OCCN3CCN(Cc4ccc(-n5c(O)nnc5-c5cc(C(C)C)c(O)cc5O)cc4)CC3)nc3c2CCN(c2cccc4cccc(Cl)c24)C3)C[C@@H]1CC#N [Compound 351, 2-[(2S)-4-[7-(8-chloronaphthalen-1-yl)-2-{2-[4-({4-[3-(2,4-dihydroxy-5-isopropylphenyl)-5-hydroxy-1,2,4-triazol-4-yl]phenyl}methyl)piperazin-1-yl]ethoxy}-5H,6-H,8H-pyrido[3,4-d]pyrimidin-4-yl]-1-(prop-2-enoyl)piperazin-2-yl]acetonitrile]"
100 to 1000,< 100,> 1000,< 100,,"C=CC(=O)N1CCN(c2nc(OC[C@@H]3C[C@H](C(=O)N4CCN(Cc5ccc(-n6c(C(=O)NCC(F)(F)F)nnc6-c6cc(C)c(O)cc6O)cc5)CC4)CN3C)nc3c2CCN(c2cccc4cccc(Cl)c24)C3)C[C@@H]1CC#N [Compound 347, 4-[4-({4-[(3S,5S)-5-({[7-(8-chloronaphthalen-1-yl)-4-[(3S)-3-(cyanomethyl)-4-(prop-2-enoyl)piperazin-1-yl]-5H,6H,8H-pyrido[3,4-d]pyrimidin-2-yl]oxy}methyl)-1-methylpyrrolidine-3-carbonyl]piperazin-1-yl}methyl)phenyl]-5-(2,4-dihydroxy-5-methylphenyl)-N-(2,2,2-trifluoroethyl)-1,2,4-triazole-3-carboxamide]"
< 100,< 100,100 to 1000,< 100,,"C=CC(=O)N1CCN(c2nc(OC[C@@H]3C[C@H](N4CCC5(CCN(Cc6ccc(-n7c(O)nnc7-c7cc(C(C)C)c(O)cc7O)cc6)CC5)CC4)CN3C)nc3c2CCN(c2cccc4cccc(Cl)c24)C3)C[C@@H]1CC#N [Compound 334, 2-[(2S)-4-[7-(8-chloronaphthalen-1-yl)-2-{[(2S,4S)-4-[9-({4-[3-(2,4-dihydroxy-5-isopropylphenyl)-5-hydroxy-1,2,4-triazol-4-yl]phenyl}methyl)-3,9-diazaspiro[5.5]undecan-3-yl]-1-methylpyrrolidin-2-yl]methoxy}-5H,6H,8H-pyrido[3,4-d]pyrimidin-4-yl]-1-(prop-2-enoyl)piperazin-2-yl]acetonitrile]"
100 to 1000,,< 100,< 100,,"C=CC(=O)N1CCN(c2nc(OC[C@@H]3C[C@H](N4CCN(C(=O)C5CCN(Cc6ccc(-n7c(C(=O)NCC)nnc7-c7cc(C(C)C)c(O)cc7O)cc6)CC5)CC4)CN3C)nc3c2CCN(c2cccc4cccc(Cl)c24)C3)C[C@@H]1CC#N [Compound 283, 4-{4-[(4-{4-[(3S,5S)-5-({[7-(8-chloronaphthalen-1-yl)-4-[(3S)-3-(cyanomethyl)-4-(prop-2-enoyl)piperazin-1-yl]-5H,6H,8H-pyrido[3,4-d]pyrimidin-2-yl]oxy}methyl)-1-methylpyrrolidin-3-yl]piperazine-1-carbonyl}piperidin-1-yl)methyl]phenyl}-5-(2,4-dihydroxy-5-isopropylphenyl)-N-ethyl-1,2,4-triazole-3-carboxamide]"
,,> 1000,< 100,100 to 1000,"C=CC(=O)N1CCN(c2nc(OCCN3CCC(C(=O)N4CCN(Cc5ccc(-n6c(C(=O)NCC(F)(F)F)nnc6-c6cc(C)c(O)cc6O)cc5)CC4)CC3)nc3c2CCN(c2cccc4cccc(Cl)c24)C3)C[C@@H]1CC#N [Compound 250, (S)-4-(4-((4-(1-(2-((4-(4-acryloyl-3-(cyanomethyl)piperazin-1-yl)-7-(8-chloronaphthalen-1-yl)-5,6,7,8-tetrahydropyrido[3,4-d]pyrimidin-2-yl)oxy)ethyl)piperidine-4-carbonyl)piperazin-1-yl)methyl)phenyl)-5-(2,4-dihydroxy-5-methylphenyl)-N-(2,2,2-trifluoroethyl)-4H-1,2,4-triazole-3-carboxamide]"
< 100,,> 1000,< 100,,"C=CC(=O)N1CCN(c2nc(OC[C@@H]3C[C@H](N4CCN(CC5CCN(Cc6ccc(-n7c(C(=O)NCC)nnc7-c7cc(C(C)C)c(O)cc7O)cc6)CC5)CC4)CN3C)nc3c2CCN(c2cccc4cccc(Cl)c24)C3)C[C@@H]1CC#N [Compound 276, 4-(4-{[4-({4-[(3S,5S)-5-({[7-(8-chloronaphthalen-1-yl)-4-[(3S)-3-(cyanomethyl)-4-(prop-2-enoyl)piperazin-1-yl]-5H,6H,8H-pyrido[3,4-d]pyrimidin-2-yl]oxy}methyl)-1-methylpyrrolidin-3-yl]piperazin-1-yl}methyl)piperidin-1-yl]methyl}phenyl)-5-(2,4-dihydroxy-5-isopropylphenyl)-N-ethyl-1,2,4-triazole-3-carboxamide]"
100 to 1000,,> 1000,< 100,,"C=CC(=O)N1CCN(c2nc(OC[C@@H]3CC[C@H](CN4CCN(C(=O)C5CCN(Cc6ccc(-n7c(C(=O)NCC)nnc7-c7cc(C(C)C)c(O)cc7O)cc6)CC5)CC4)N3C)nc3c2CCN(c2cccc4cccc(C)c24)C3)C[C@@H]1CC#N [Compound 274, 4-(4-{[4-(4-{[(2R,5S)-5-[({4-[(3S)-3-(cyanomethyl)-4-(prop-2-enoyl)piperazin-1-yl]-7-(8-methylnaphthalen-1-yl)-5H,6H,8H-pyrido[3,4-d]pyrimidin-2-yl}oxy)methyl]-1-methylpyrrolidin-2-yl]methyl}piperazine-1-carbonyl)piperidin-1-yl]methyl}phenyl)-5-(2,4-dihydroxy-5-isopropylphenyl)-N-ethyl-1,2,4-triazole-3-carboxamide]"
< 100,,100 to 1000,< 100,,"C=CC(=O)N1CCN(c2nc(OCC3(CN4CCN(Cc5ccc(-n6c(C(=O)NCC)nnc6-c6cc(C(C)C)c(O)cc6O)cc5)CC4)CC3)nc3c2CCN(c2cccc4cccc(Cl)c24)C3)C[C@@H]1CC#N [Compound 285, 4-{4-[(4-{[1-({[7-(8-chloronaphthalen-1-yl)-4-[(3S)-3-(cyanomethyl)-4-(prop-2-enoyl)piperazin-1-yl]-5H,6H,8H-pyrido[3,4-d]pyrimidin-2-yl]oxy}methyl)cyclopropyl]methyl}piperazin-1-yl)methyl]phenyl}-5-(2,4-dihydroxy-5-isopropylphenyl)-N-ethyl-1,2,4-triazole-3-carboxamide]"
< 100,,< 100,< 100,,"C=CC(=O)N1CCN(c2nc(OC[C@@H]3C[C@H](N4CCC5(CCN(Cc6ccc(-n7c(C(=O)NCC)nnc7-c7cc(C(C)C)c(O)cc7O)cc6)CC5)CC4)CN3C)nc3c2CCN(c2cccc4cccc(Cl)c24)C3)C[C@@H]1CC#N [Compound 259, 4-[4-({9-[(3S,5S)-5-({[7-(8-chloronaphthalen-1-yl)-4-[(3S)-3-(cyanomethyl)-4-(prop-2-enoyl)piperazin-1-yl]-5H,6H,8H-pyrido[3,4-d]pyrimidin-2-yl]oxy}methyl)-1-methylpyrrolidin-3-yl]-3,9-diazaspiro[5.5]undecan-3-yl}methyl)phenyl]-5-(2,4-di hydroxy-5-isopropylphenyl)-N-ethyl-1,2,4-triazole-3-carboxamide]"

# From patent publication US20230391772A1, “METHODS AND COMPOSITIONS FOR TARGETED PROTEIN DEGRADATION” (Ranok Therapeutics (Hangzhou) Co. Ltd., priority 2020, published 2023)
